The record followed here is BindingDB's records for doi:10.1016/j.bmcl.2003.10.023 (Boehringer Ingelheim (Canada), 2003).

One may read the IC50 as the concentration that inhibits the measured activity by half. Lower therefore signals higher potency.

A short description of the assay: Inhibitory activity against calf thymus RNA polymerase.
In turn, `O=C(O)c1ccc2c(c1)nc(-c1ccsc1)n2C1CCCCC1` [1-Cyclohexyl-2-thiophen-3-yl-1H-benzoimidazole-5-carboxylic acid] came in with an IC50 of over 500 µM. `O=C(O)c1ccc2c(c1)nc(-c1cccs1)n2C1CCCCC1` [1-Cyclohexyl-2-thiophen-2-yl-1H-benzoimidazole-5-carboxylic acid] came in with a half-maximal inhibitory concentration (IC50) of over 500 µM.

As for `O=C(O)c1ccc2c(c1)nc(-c1ccccc1)n2C1CCCCC1` [1-cyclohexyl-2-phenyl-1H-benzo[d]imidazole-5-carboxylic acid], the IC50 was over 500 µM. The figure for `O=C(O)c1ccc2c(c1)nc(-c1nccs1)n2C1CCCCC1` [1-Cyclohexyl-2-thiazol-2-yl-1H-benzoimidazole-5-carboxylic acid] is over 500 µM.

The compound `O=C(O)c1ccc2c(c1)nc(-c1ccco1)n2C1CCCCC1` [1-Cyclohexyl-2-furan-2-yl-1H-benzoimidazole-5-carboxylic acid] registered an IC50 of over 500 µM. `O=C(O)c1ccc2c(c1)nc(-c1ccc[nH]1)n2C1CCCCC1` [1-Cyclohexyl-2-(1H-pyrrol-2-yl)-1H-benzoimidazole-5-carboxylic acid] had an IC50 of over 500 µM.

In turn, `O=C(O)c1ccc2c(c1)nc(-c1ncc[nH]1)n2C1CCCCC1` [1-Cyclohexyl-2-(1H-imidazol-2-yl)-1H-benzoimidazole-5-carboxylic acid] gave a half-inhibitory concentration (IC50) of over 500 µM.
